Data reported in patent US11370798B2 (Vertex Pharmaceuticals Incorporated, priority 2012, dated 2022).

Test system: HCT116 colorectal cancer cells
Assay: Cisplatin sensitization assay (96 h cell viability MTS);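 also: Test-compound concentration that lowers the Cisplatin IC50 by a set fold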
Assay type: cell-based
Settings: compound and Cisplatin added simultaneously, Cisplatin sensitization value
In short: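 Compound and cisplatin added together as a full matrix of 2-fold serial dilutions from a top final concentration of 10 μM; cells incubated 96 h at 37° C, 5% CO2. Viability then read by MTS after 1 h further incubation; sensitization value reported in μM bins.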

SMILES	Cisplatin Sensitization Assay
Nc1nn2cc(F)cnc2c1C(=O)Nc1cnccc1N1CCN2C(=O)COCC2C1 (stereo not shown) [I-N-136, 2-amino-6-fluoro-N-(4-(4-oxohexahydropyrazino[2,1-c][1,4]oxazin-8(1H)-yl)pyridin-3-yl)pyrazolo[1,5-a]pyrimidine-3-carboxamide]	++ (Cisplatin sensitization value>0.02 μM but <0.2 μM)
Nc1nn2cc(F)cnc2c1C(=O)Nc1cncc(F)c1N1CCN2CCOC[C@@H]2C1 [I-N-137, (S)-2-amino-6-fluoro-N-(5-fluoro-4-(hexahydropyrazino[2,1-c][1,4]oxazin-8(1H)-yl)pyridin-3-yl)pyrazolo[1,5-a]pyrimidine-3-carboxamide]	++ (Cisplatin sensitization value>0.02 μM but <0.2 μM)
CN1CCN(c2c(F)cncc2NC(=O)c2c(N)nn3cc(C(C)(C)C#N)cnc23)CC1 [I-N-138, 2-amino-6-(2-cyanopropan-2-yl)-N-(5-fluoro-4-(4-methylpiperazin-1-yl)pyridin-3-yl)pyrazolo[1,5-a]pyrimidine-3-carboxamide]	++ (Cisplatin sensitization value>0.02 μM but <0.2 μM)
CC(C)(O)CN1CCN(c2c(F)cncc2NC(=O)c2c(N)nn3cc(F)cnc23)CC1 [I-N-139, 2-amino-6-fluoro-N-(5-fluoro-4-(4-(2-hydroxy-2-methylpropyl)piperazin-1-yl)pyridin-3-yl)pyrazolo[1,5-a]pyrimidine-3-carboxamide]	+++ (Cisplatin sensitization value of <0.02 μM)
CN1CCN(C(=O)N2CCN(c3c(F)cncc3NC(=O)c3c(N)nn4cc(F)cnc34)CC2)CC1 [I-N-140, 2-amino-6-fluoro-N-(5-fluoro-4-(4-(4-methylpiperazine-1-carbonyl)piperazin-1-yl)pyridin-3-yl)pyrazolo[1,5-a]pyrimidine-3-carboxamide]	+++ (Cisplatin sensitization value of <0.02 μM)
Nc1nn2cc(F)cnc2c1C(=O)Nc1cnccc1N1CCOCC1 [I-N-141, 2-amino-6-fluoro-N-(4-morpholinopyridin-3-yl)pyrazolo[1,5-a]pyrimidine-3-carboxamide]	+++ (Cisplatin sensitization value of <0.02 μM)
CC(C)(C#N)c1cnc2c(C(=O)Nc3cnccc3N3CCN(C4COC4)CC3)c(N)nn2c1 [I-N-142, 2-amino-6-(2-cyanopropan-2-yl)-N-(4-(4-(oxetan-3-yl)piperazin-1-yl)pyridin-3-yl)pyrazolo[1,5-a]pyrimidine-3-carboxamide]	++ (Cisplatin sensitization value>0.02 μM but <0.2 μM)
CC(C#N)c1cnc2c(C(=O)Nc3cnccc3N3CCN(C4COC4)CC3)c(N)nn2c1 (stereo not shown) [I-N-143, 2-amino-6-(1-cyanoethyl)-N-(4-(4-(oxetan-3-yl)piperazin-1-yl)pyridin-3-yl)pyrazolo[1,5-a]pyrimidine-3-carboxamide]	++ (Cisplatin sensitization value>0.02 μM but <0.2 μM)
CC(C)(C#N)c1cnc2c(C(=O)Nc3cncc(F)c3N3CCN(C4COC4)CC3)c(N)nn2c1 [I-N-144]	+++ (Cisplatin sensitization value of <0.02 μM)
CN(C)S(=O)(=O)C1CCN(c2c(F)cncc2NC(=O)c2c(N)nn3cc(F)cnc23)CC1 [I-N-146, 2-amino-N-(4-(4-(N,N-dimethylsulfamoyl)piperidin-1-yl)-5-fluoropyridin-3-yl)-6-fluoropyrazolo[1,5-a]pyrimidine-3-carboxamide]	+++ (Cisplatin sensitization value of <0.02 μM)
Nc1nn2cc(F)cnc2c1C(=O)Nc1cncc(F)c1N1CCC(N2CCCC2=O)CC1 [I-N-147, 2-amino-6-fluoro-N-(5-fluoro-4-(4-(2-oxopyrrolidin-1-yl)piperidin-1-yl)pyridin-3-yl)pyrazolo[1,5-a]pyrimidine-3-carboxamide]	+++ (Cisplatin sensitization value of <0.02 μM)
CN1CCC(N(C)S(=O)(=O)C2CCN(c3c(F)cncc3NC(=O)c3c(N)nn4cc(F)cnc34)CC2)CC1 [I-N-148, 2-amino-6-fluoro-N-(5-fluoro-4-(4-(N-methyl-N-(1-methylpiperidin-4-yl)sulfamoyl)piperidin-1-yl)pyridin-3-yl)pyrazolo[1,5-a]pyrimidine-3-carboxamide]	+++ (Cisplatin sensitization value of <0.02 μM)
Nc1nn2cc(F)cnc2c1C(=O)Nc1cncc(F)c1N1CCC(CN2CCOCC2)CC1 [I-N-149, 2-amino-6-fluoro-N-(5-fluoro-4-(4-(morpholinomethyl)piperidin-1-yl)pyridin-3-yl)pyrazolo[1,5-a]pyrimidine-3-carboxamide]	+++ (Cisplatin sensitization value of <0.02 μM)
CN1CCN(CC2CCN(c3c(F)cncc3NC(=O)c3c(N)nn4cc(F)cnc34)CC2)CC1 [I-N-150, 2-amino-6-fluoro-N-(5-fluoro-4-(4-((4-methylpiperazin-1-yl)methyl)piperidin-1-yl)pyridin-3-yl)pyrazolo[1,5-a]pyrimidine-3-carboxamide]	+++ (Cisplatin sensitization value of <0.02 μM)
CN1CCN(C2CCN(c3c(F)cncc3NC(=O)c3c(N)nn4cc(F)cnc34)CC2)C(=O)C1 [I-N-151, 2-amino-6-fluoro-N-(5-fluoro-4-(4-(4-methyl-2-oxopiperazin-1-yl)piperidin-1-yl)pyridin-3-yl)pyrazolo[1,5-a]pyrimidine-3-carboxamide]	+ (Cisplatin sensitization value>0.2 μM but <5 μM)
Nc1nn2cc(F)cnc2c1C(=O)Nc1cnccc1N1CCCCC1 [I-N-152, 2-amino-6-fluoro-N-(4-(piperidin-1-yl)pyridin-3-yl)pyrazolo[1,5-a]pyrimidine-3-carboxamide]	+++ (Cisplatin sensitization value of <0.02 μM)
CN(C)CC(=O)N1CCN(c2c(F)cncc2NC(=O)c2c(N)nn3cc(F)cnc23)CC1 [I-N-153, 2-amino-N-(4-(4-(2-(dimethylamino)acetyl)piperazin-1-yl)-5-fluoropyridin-3-yl)-6-fluoropyrazolo[1,5-a]pyrimidine-3-carboxamide]	++ (Cisplatin sensitization value>0.02 μM but <0.2 μM)
CN1CCC(OC2CCN(c3ccncc3NC(=O)c3c(N)nn4cc(F)cnc34)CC2)CC1 [I-N-154, 2-amino-6-fluoro-N-(4-(4-((1-methylpiperidin-4-yl)oxy)piperidin-1-yl)pyridin-3-yl)pyrazolo[1,5-a]pyrimidine-3-carboxamide]	+++ (Cisplatin sensitization value of <0.02 μM)
Nc1nn2cc(F)cnc2c1C(=O)Nc1cncc(F)c1N1CCC(S(=O)(=O)N2CCOCC2)CC1 [I-N-155, 2-amino-6-fluoro-N-(5-fluoro-4-(4-(morpholinosulfonyl)piperidin-1-yl)pyridin-3-yl)pyrazolo[1,5-a]pyrimidine-3-carboxamide]	+++ (Cisplatin sensitization value of <0.02 μM)
CN1CCC(C(=O)N2CCN(c3c(F)cncc3NC(=O)c3c(N)nn4cc(F)cnc34)CC2)C1 (stereo not shown) [I-N-156, 2-amino-6-fluoro-N-(5-fluoro-4-(4-(1-methylpyrrolidine-3-carbonyl)piperazin-1-yl)pyridin-3-yl)pyrazolo[1,5-a]pyrimidine-3-carboxamide]	+++ (Cisplatin sensitization value of <0.02 μM)
CN1CCC[C@H]1C(=O)N1CCN(c2c(F)cncc2NC(=O)c2c(N)nn3cc(F)cnc23)CC1 [I-N-157, (S)-2-amino-6-fluoro-N-(5-fluoro-4-(4-(1-methylpyrrolidine-2-carbonyl)piperazin-1-yl)pyridin-3-yl)pyrazolo[1,5-a]pyrimidine-3-carboxamide]	++ (Cisplatin sensitization value>0.02 μM but <0.2 μM)
Nc1nn2cc(F)cnc2c1C(=O)Nc1cncc(F)c1N1CCN(S(=O)(=O)C2CCOCC2)CC1 [I-N-158, 2-amino-6-fluoro-N-(5-fluoro-4-(4-((tetrahydro-2H-pyran-4-yl)sulfonyl)piperazin-1-yl)pyridin-3-yl)pyrazolo[1,5-a]pyrimidine-3-carboxamide]	+++ (Cisplatin sensitization value of <0.02 μM)
Nc1nn2cc(F)cnc2c1C(=O)Nc1cncc(F)c1N1CCN(S(=O)(=O)C2CC2)CC1 [I-N-159, 2-amino-N-(4-(4-(cyclopropylsulfonyl)piperazin-1-yl)-5-fluoropyridin-3-yl)-6-fluoropyrazolo[1,5-a]pyrimidine-3-carboxamide]	+++ (Cisplatin sensitization value of <0.02 μM)
Nc1nn2cc(F)cnc2c1C(=O)Nc1cncc(F)c1N1CCN(C(=O)CN2CCC2)CC1 [I-N-160, 2-amino-N-(4-(4-(2-(azetidin-1-yl)acetyl)piperazin-1-yl)-5-fluoropyridin-3-yl)-6-fluoropyrazolo[1,5-a]pyrimidine-3-carboxamide]	+++ (Cisplatin sensitization value of <0.02 μM)
Cc1ncn(-c2ccncc2NC(=O)c2c(N)nn3cc(F)cnc23)n1 [I-N-161, 2-amino-6-fluoro-N-(4-(3-methyl-1H-1,2,4-triazol-1-yl)pyridin-3-yl)pyrazolo[1,5-a]pyrimidine-3-carboxamide]	+ (Cisplatin sensitization value>0.2 μM but <5 μM)
Cc1ncnn1-c1ccncc1NC(=O)c1c(N)nn2cc(F)cnc12 [I-N-162, 2-amino-6-fluoro-N-(4-(5-methyl-1H-1,2,4-triazol-1-yl)pyridin-3-yl)pyrazolo[1,5-a]pyrimidine-3-carboxamide]	++ (Cisplatin sensitization value>0.02 μM but <0.2 μM)
Nc1nn2cc(F)cnc2c1C(=O)Nc1cncc(F)c1N1CCN2C(=O)CCC2C1 (stereo not shown) [I-N-163, 2-amino-6-fluoro-N-(5-fluoro-4-(6-oxohexahydropyrrolo[1,2-a]pyrazin-2(1H)-yl)pyridin-3-yl)pyrazolo[1,5-a]pyrimidine-3-carboxamide]	+++ (Cisplatin sensitization value of <0.02 μM)
CN1CC(OC2CCN(c3ccncc3NC(=O)c3c(N)nn4cc(F)cnc34)CC2)C1 [I-N-164, 2-amino-6-fluoro-N-(4-(4-((1-methylazetidin-3-yl)oxy)piperidin-1-yl)pyridin-3-yl)pyrazolo[1,5-a]pyrimidine-3-carboxamide]	+++ (Cisplatin sensitization value of <0.02 μM)
